According to ChEMBL document CHEMBL2046309, “Semi-synthesis and bio-evaluation of polybrominated diphenyl ethers from the sponge Dysidea herbacea” (Bioorg Med Chem Lett, 2012):
≈ marks a conversion by molar mass, not a printed value. Calls of active or inactive are those of the source. No cut-off for these calls is given here.

Columns and labels:
U-937 = experiment: Cytotoxicity against human U937 cells assessed as decrease in cell number after 24 hrs by MTT assay; type: functional, cell-based; conditions: U-937, 24 h
HL-60 = experiment: Cytotoxicity against human HL60 cells assessed as decrease in cell number after 24 hrs by MTT assay; type: functional, cell-based; conditions: HL-60, 24 h
Staphylococcus aureus = experiment: Antibacterial activity against Staphylococcus aureus by paper disc assay method; type: functional, organism-based
Bacillus subtilis = experiment: Antibacterial activity against Bacillus subtilis by paper disc assay method; type: functional, organism-based
Pseudomonas syringae = experiment: Antibacterial activity against Pseudomonas syringae by paper disc assay method; type: functional, organism-based
Escherichia coli = experiment: Antibacterial activity against Escherichia coli by paper disc assay method; type: functional, organism-based
Artemia = experiment: Toxicity in brine shrimps; type: organism-based; conditions: in vivo

SMILES | IC50 (U-937) [µg/mL] | IC50 (HL-60) [µg/mL] | further results
C=CCOc1c(Br)cc(Br)cc1Oc1ccc(Br)cc1Br | 29 (≈ 53.5 µM) | 27.9 (≈ 51.5 µM) | 
CC(=O)Oc1c(Br)cc(Br)cc1Oc1ccc(Br)cc1Br | 32.3 (≈ 59.4 µM) | 29.9 (≈ 55 µM) | Activity (Staphylococcus aureus): Active; Activity (Bacillus subtilis): Active; Activity (Pseudomonas syringae): Active; Activity (Escherichia coli): Active; LC50 (Artemia): 23.28 ppm
BrCCCCCOc1c(Br)cc(Br)cc1Oc1ccc(Br)cc1Br | 29.5 (≈ 45.3 µM) | 25.7 (≈ 39.5 µM) | 
BrCCCCCCOc1c(Br)cc(Br)cc1Oc1ccc(Br)cc1Br | 33.8 (≈ 50.8 µM) | 37.8 (≈ 56.9 µM) | 
COc1c(Br)cc(Br)cc1Oc1ccc(Br)cc1Br | 34.5 (≈ 66.9 µM) | 28.2 (≈ 54.7 µM) | Activity (Staphylococcus aureus): Active; Activity (Bacillus subtilis): Active; Activity (Pseudomonas syringae): Active; Activity (Escherichia coli): Active; LC50 (Artemia): 19.28 ppm
CC(C)(C)OC(=O)N1CCN(CCCCCOc2c(Br)cc(Br)cc2Oc2ccc(Br)cc2Br)CC1 | 35.5 (≈ 46.9 µM) | 32.1 (≈ 42.5 µM) | 
C#CCOc1c(Br)cc(Br)cc1Oc1ccc(Br)cc1Br | 29.5 (≈ 54.6 µM) | 29.7 (≈ 55 µM) | 
Brc1ccc(Oc2cc(Br)cc(Br)c2OCCCCCN2CCN(c3ccccc3)CC2)c(Br)c1 | 42.5 (≈ 58 µM) | 41.6 (≈ 56.8 µM) | 
CN1CCN(CCCCCOc2c(Br)cc(Br)cc2Oc2ccc(Br)cc2Br)CC1 | 49.1 (≈ 73.3 µM) | 48.3 (≈ 72.1 µM) | 
COc1cc([C@@H]2c3cc4c(cc3[C@@H](O[C@@H]3O[C@@H]5CO[C@@H](C)O[C@H]5[C@H](O)[C@H]3O)[C@H]3COC(=O)[C@H]23)OCO4)cc(OC)c1O [ETOPOSIDE] |  | 1.1 (≈ 1.87 µM) | 
OCCCOc1c(Br)cc(Br)cc1Oc1ccc(Br)cc1Br | 32.3 (≈ 57.7 µM) | 29.9 (≈ 53.4 µM) | 
BrCCCCOc1c(Br)cc(Br)cc1Oc1ccc(Br)cc1Br | 29 (≈ 45.5 µM) | 25.9 (≈ 40.7 µM) | 
Cc1ccc(S(=O)(=O)n2nc(N3CCN(CCCCCOc4c(Br)cc(Br)cc4Oc4ccc(Br)cc4Br)CC3)c3cc([N+](=O)[O-])ccc32)cc1 | 68.5 (≈ 70.5 µM) | 52.5 (≈ 54 µM) | 
CCOC(=O)C(C)Oc1c(Br)cc(Br)cc1Oc1ccc(Br)cc1Br (stereo not drawn) | 39.5 (≈ 65.6 µM) | 35.7 (≈ 59.3 µM) | 
Brc1ccc(Oc2cc(Br)cc(Br)c2OCCCCCN2CCOCC2)c(Br)c1 | 39.8 (≈ 60.6 µM) | 50.5 (≈ 76.9 µM) | 
Brc1ccc(Oc2cc(Br)cc(Br)c2OCCCCCN2CCN(C/C=C/c3ccccc3)CC2)c(Br)c1 | 32.7 (≈ 42.3 µM) | 47.2 (≈ 61.1 µM) | 
BrCCCOc1c(Br)cc(Br)cc1Oc1ccc(Br)cc1Br | 30.3 (≈ 48.7 µM) | 29.9 (≈ 48 µM) | 
CC(C)(C)OC(=O)N1CCCN(CCCCCOc2c(Br)cc(Br)cc2Oc2ccc(Br)cc2Br)CC1 | 39.5 (≈ 51.3 µM) | 44.8 (≈ 58.2 µM) | 
COc1ccccc1N1CCN(CCCCCOc2c(Br)cc(Br)cc2Oc2ccc(Br)cc2Br)CC1 | 37.5 (≈ 49.2 µM) | 32.2 (≈ 42.2 µM) | 
CC(C)(C)C(=O)C(C#N)Oc1c(Br)cc(Br)cc1Oc1ccc(Br)cc1Br (stereo not drawn) | 32.5 (≈ 52 µM) | 29.2 (≈ 46.7 µM) | 
Oc1c(Br)cc(Br)cc1Oc1ccc(Br)cc1Br | 22.5 (≈ 44.8 µM) | 19.3 (≈ 38.5 µM) | LC50 (Artemia): 12.8 ppm
OCCOc1c(Br)cc(Br)cc1Oc1ccc(Br)cc1Br | 34.5 (≈ 63.2 µM) | 28.2 (≈ 51.7 µM) | 
Brc1ccc(Oc2cc(Br)cc(Br)c2OCc2ccccc2)c(Br)c1 | 29 (≈ 49 µM) | 27.9 (≈ 47.1 µM) | 
BrCCOc1c(Br)cc(Br)cc1Oc1ccc(Br)cc1Br | 32.5 (≈ 53.4 µM) | 26.2 (≈ 43 µM) | 
